From PMC6011838, “Transcriptome analysis and anaerobic C4‐dicarboxylate transport in Actinobacillus succinogenes” (MicrobiologyOpen, 2017)

Biological target: T1, Asuc_1999 (Actinobacillus succinogenes, UniProt A6VQU8)
T1 construct: untagged gene in pBAD30 derivative pMB64, expressed in E. coli IMW529 (deficient in anaerobic fumarate transport); 555 amino acids; cell suspension uptake
Experiment: […] uptake, filtration assay, E. coli cell suspension
Format: cell-based
Conditions: anaerobic; phosphate buffer pH 7, 1 mmol/L MgSO4; 37°C; 1 min uptake; 20 mmol/L lactose preincubation; labelled compound

Row | Structure (SMILES) | Km
1 | O=C(O)CCC(=O)O [succinate] | 364 µM
2 | O=C(O)/C=C/C(=O)O [fumarate] | 452 µM
